Literature values, collected in patent US20230111350A1, “Opthalmic Compositions for Treating Coronaviruses” (priority 2020, published 2023).

What was measured:
[1] = systemic administration; dependent on daily dose by weight
SARS-CoV-2 = conditions: relative to chloroquine
[2] = relative to chloroquine

In the case of `CCN(CCO)CCCC(C)Nc1ccnc2cc(Cl)ccc12` (stereo not shown) [hydroxychloroquine], the “prevalence of retinal toxicity” value [1] is listed as ≤ 7.5%, the “percentage of patients testing positive for COVID-19” value (COVID-19; after 6 days, 600 mg/day oral, untreated 90%) is listed as 25% and the viral load (COVID-19; oral administration) is listed as “strong reduction in viral load”. For the same compound, the “potency at inhibiting SARS-CoV-2 in vitro” value (SARS-CoV-2) was “more potent than chloroquine” and the toxicity profile [2] was “reduced toxicity profile”.

In the case of `Oc1c(I)cc(Cl)c2cccnc12` [clioquinol], the “effect on chloroquine-associated toxicity in ARPE-19 cells” value (ARPE-19; co-treatment with chloroquine, zinc-dependent, by reversing autophagy arrest) is listed as “attenuated the chloroquine-associated toxicity”.

In the case of `CCN(CC)CCCC(C)Nc1ccnc2cc(Cl)ccc12` (stereo not shown) [chloroquine], the “toxicity in ARPE-19 cells” value (ARPE-19) is given as “vacuole formation and cell death”.
